Results reported in patent US8063060B2, “R(−)-11-hydroxyaporphine derivatives and uses thereof” (The McLean Hospital Corporation, priority 2004, dated 2011).
Where a name gives a salt, the structure may show the parent alone. Read-outs that look alike come from different tables or passages of the source.

Tests used:
[1] = following a single dose; cited from earlier work
[2] = molecular target: T1, human D3 receptor (Homo sapiens, UniProt P35462); test: Affinity at human D3 receptor in transfected cell membranes, tritium-labeled 7-OH-DPAT; type: binding
T1 construct: expressed in transfected cells
Procedure: (§1) Affinity data were obtained in cells transfected with human D1, D2, or D3 receptor cDNA. Cells were grown and harvested using standard procedures.

[3] = tested on: adult male Sprague-Dawley rats; test: Stimulation of motor activity (photobeam activity monitoring), in vivo potency and oral bioavailability; design: species or system rat; settings: for Induced motor activation, Response (total of electronically monitored locomotor responses, scored over time): relative to 4 μmol/kg i.p. R(−)-apomorphine = 1
Procedure: In vivo potency and oral bioavailability of the aporphine derivatives were determined by measuring stimulation of motor activity in adult male Sprague-Dawley rats using a photobeam activity monitoring system (San Diego Instruments; San Diego, Calif.). See Zhang et al., Neuropsychopharmacology 25:624 (2001). The number of animal subjects in each experimental group ranged from 4 to 8. Oral delivery of test agents was achieved using a permanently surgically pre-implanted polyethylene gastric tube to avoid stress associated with conventional oral intubation. For this surgery, rates were anesthetized with 60 mg/kg sodium pentobarbital intraperitoneally. PE50 tubing was inserted and sutured to the stomach, and led subcutaneously to a point of access on the back of the neck, where it was sutured in place. Animals were allowed two weeks to recover prior to behavior testing.

[4] = molecular target: T2, dopamine D1 receptor (Rattus norvegicus, UniProt P18901); test: Radioligand competition assay, D1 receptor, rat corpus striatum membranes, [3H]SCH-23390; type: binding
T2 construct: membrane preparations from dopamine-rich corpus striatum (caudatoputamen) tissue from rat forebrain; from tissue; host or cells: corpus striatum (caudatoputamen) of adult male Sprague-Dawley rats
Procedure: (§2) Affinity of N-alkyl R(−)-11-hydroxyaporphines (14, 4, 5, 15, 23, 24) and their esters (17-19) for the dopamine D1 and D2 receptors was determined by radioligand competition assays, using membrane preparations from dopamine-rich corpus striatum (caudatoputamen) tissue from rat forebrain. Adult male Sprague-Dawley rats were sacrificed by decapitation following carbon dioxide narcosis. Brains were quickly removed and dissected on ice. Tissue was homogenized in 50 mM Tris-HCl buffer (pH 7.4) containing 150 mM NaCl, washed twice and resuspended in the same buffer. For the D1 dopamine receptor assay, homogenate was incubated with 0.3 nM [^3H]SCH-23390 (Perkin Elmer; Boston, Mass.) for 30 minutes at 30° C. Non-specific binding was defined with 10 μM cis-flupenthixol. See Faedda et al., Biochem. Pharmacol. 38:473 (1989). For the D2 receptor assay, homogenate was incubated with […] [^3H]nemonapride (Perkin Elmer, Boston, Mass.) for 90 minutes at 30° C. Nonspecific binding was defined with 10 μM haloperidol. See Baldessarini et al., Mol. Pharmacol. 42:856 (1992). Experiments were carried out in triplicate.

[5] = molecular target: dopamine D2 receptor (Rattus norvegicus, UniProt P61169); test: Radioligand competition assay, D2 receptor, rat corpus striatum membranes, [3H]nemonapride; type: binding
Procedure: as §2

[6] = molecular target: T3, human D1 receptor (Homo sapiens, UniProt P21728); test: Affinity at human D1 receptor in transfected cell membranes, tritium-labeled SCH-23390; type: binding
T3 construct: expressed in transfected cells
Procedure: as §1

[7] = molecular target: T4, human D2 receptor (Homo sapiens, UniProt P14416); test: Affinity at human D2 receptor in transfected cell membranes, tritium-labeled nemonapride; type: binding
T4 construct: expressed in transfected cells
Procedure: as §1

[8] = transfected cell membranes, read-out: Affinity at human receptors, D3
[9] = rat striatal membranes, 0.3 nM [3H]SCH-23390, 30 minutes at 30° C, read-out: Affinity at rat dopamine receptors, D1
[10] = rat striatal membranes, [3H]nemonapride, 90 minutes at 30° C, read-out: Affinity at rat dopamine receptors, D2
[11] = transfected cell membranes, read-out: Affinity at human receptors, D1
[12] = transfected cell membranes, read-out: Affinity at human receptors, D2

T3 sequence (P21728 whole entry): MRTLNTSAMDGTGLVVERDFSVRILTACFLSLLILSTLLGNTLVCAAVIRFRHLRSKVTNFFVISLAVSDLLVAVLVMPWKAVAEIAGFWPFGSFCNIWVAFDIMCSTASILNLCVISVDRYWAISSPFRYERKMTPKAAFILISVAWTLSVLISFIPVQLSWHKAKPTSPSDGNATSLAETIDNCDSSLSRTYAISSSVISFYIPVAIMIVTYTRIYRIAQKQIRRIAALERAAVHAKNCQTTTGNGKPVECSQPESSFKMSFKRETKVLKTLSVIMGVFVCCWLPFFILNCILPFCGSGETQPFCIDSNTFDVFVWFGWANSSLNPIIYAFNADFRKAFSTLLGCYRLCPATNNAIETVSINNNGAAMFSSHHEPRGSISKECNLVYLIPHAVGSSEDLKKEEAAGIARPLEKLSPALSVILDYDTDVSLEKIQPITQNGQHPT
T4 sequence (P14416 whole entry): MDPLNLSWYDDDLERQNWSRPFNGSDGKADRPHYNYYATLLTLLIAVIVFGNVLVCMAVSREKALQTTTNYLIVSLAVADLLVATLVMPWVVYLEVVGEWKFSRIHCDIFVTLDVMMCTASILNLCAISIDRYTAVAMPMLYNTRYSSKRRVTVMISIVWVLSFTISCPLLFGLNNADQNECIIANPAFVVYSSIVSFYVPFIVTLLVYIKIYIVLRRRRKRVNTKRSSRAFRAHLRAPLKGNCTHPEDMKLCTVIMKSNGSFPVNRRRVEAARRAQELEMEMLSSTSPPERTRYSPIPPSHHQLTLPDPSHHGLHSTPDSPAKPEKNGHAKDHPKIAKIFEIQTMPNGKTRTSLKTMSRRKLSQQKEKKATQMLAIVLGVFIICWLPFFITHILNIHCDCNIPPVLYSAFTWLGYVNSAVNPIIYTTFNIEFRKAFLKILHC
T2 sequence (P18901 whole entry): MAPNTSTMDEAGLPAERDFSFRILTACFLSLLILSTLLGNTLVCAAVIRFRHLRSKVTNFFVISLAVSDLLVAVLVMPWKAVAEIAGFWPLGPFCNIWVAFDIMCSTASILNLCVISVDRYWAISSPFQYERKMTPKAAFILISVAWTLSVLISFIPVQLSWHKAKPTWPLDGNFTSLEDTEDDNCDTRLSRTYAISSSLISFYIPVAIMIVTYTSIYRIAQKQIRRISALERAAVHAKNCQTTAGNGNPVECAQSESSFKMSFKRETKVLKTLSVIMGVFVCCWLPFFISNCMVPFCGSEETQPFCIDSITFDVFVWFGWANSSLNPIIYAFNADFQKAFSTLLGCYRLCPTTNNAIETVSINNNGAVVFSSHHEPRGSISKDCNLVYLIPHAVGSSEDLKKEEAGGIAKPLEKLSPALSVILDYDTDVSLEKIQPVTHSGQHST
T1 sequence (P35462 whole entry): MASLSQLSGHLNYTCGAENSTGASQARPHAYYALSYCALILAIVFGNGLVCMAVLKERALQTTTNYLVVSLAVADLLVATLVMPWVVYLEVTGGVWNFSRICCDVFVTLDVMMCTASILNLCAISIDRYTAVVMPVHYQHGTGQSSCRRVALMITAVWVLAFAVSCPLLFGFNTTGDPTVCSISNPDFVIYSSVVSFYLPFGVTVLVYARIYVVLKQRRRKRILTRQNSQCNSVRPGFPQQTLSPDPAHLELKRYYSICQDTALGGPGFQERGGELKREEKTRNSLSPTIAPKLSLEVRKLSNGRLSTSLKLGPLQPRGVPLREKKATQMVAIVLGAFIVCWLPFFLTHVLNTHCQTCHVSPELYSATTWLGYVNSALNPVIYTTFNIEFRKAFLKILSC
dopamine D2 receptor, sequence (P61169 1-415 isoform P61169-2): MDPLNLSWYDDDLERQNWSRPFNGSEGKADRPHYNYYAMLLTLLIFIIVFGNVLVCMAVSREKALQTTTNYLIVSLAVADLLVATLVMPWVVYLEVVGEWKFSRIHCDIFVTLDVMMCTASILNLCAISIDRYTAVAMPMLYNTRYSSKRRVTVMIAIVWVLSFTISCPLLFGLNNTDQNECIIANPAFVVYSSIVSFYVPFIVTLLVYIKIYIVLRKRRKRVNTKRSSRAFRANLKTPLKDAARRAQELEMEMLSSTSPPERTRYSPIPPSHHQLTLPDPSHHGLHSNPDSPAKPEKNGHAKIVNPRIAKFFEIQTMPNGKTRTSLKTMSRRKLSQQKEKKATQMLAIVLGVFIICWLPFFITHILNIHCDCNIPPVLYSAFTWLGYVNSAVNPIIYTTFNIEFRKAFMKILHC

SMILES | Induced motor activation, Response (total of electronically monitored locomotor responses, scored over time) ([3]; 4 μmol/kg, gastric) | Induced motor activation, Duration ([3]; 4 μmol/kg, peritoneal) [h] | Induced motor activation, Response (total of electronically monitored locomotor responses, scored over time) ([3]; 4 μmol/kg, peritoneal) | Induced motor activation, Duration ([3]; 20 μmol/kg, gastric) [h] | Induced motor activation, Response (total of electronically monitored locomotor responses, scored over time) ([3]; 20 μmol/kg, gastric) | Ki [4, 9] [nM] | further results
C=CCN1CCc2cccc3c2[C@H]1Cc1cccc(O)c1-3 (as salt: hydrochloride) [Compound 5, R(−)-N-allyl-11-hydroxynoraporphine] |  |  |  |  |  |  | melting point: 186 to 190 °C
CCN1CCc2cccc3c2[C@H]1Cc1cccc(O)c1-3 (as salt: hydrochloride) [Compound 14, R(−)—N-ethyl-11-hydroxynoraporphine] |  |  |  |  |  |  | melting point: 250 °C
CN1CCc2cccc3c2[C@H]1Cc1ccc(O)c(O)c1-3 [Compound 1, R(−)-apomorphine] |  |  |  |  |  |  | effects last for [1]: 40 to 60 min; onset of action [1]: 5 to 15 min
CCCN1CCc2cccc3c2[C@H]1Cc1ccc(O)c(O)c1-3 [Compound 2, R(−)-N-propylnorapomorphine, reference compound] | 0 | 8 | 12 | 14 | 68 |  | Ki [2, 8]: 0.51 ± 0.07 nM
CN1CCc2cccc3c2[C@H]1Cc1cccc(O)c1-3 [Compound 3, R(−)-11-OH-aporphine, reference compound] |  |  |  |  |  | 26.5 ± 1.03 | Ki [5, 10]: 108 ± 10.8 nM
CCCN1CCc2cccc3c2[C@H]1Cc1cccc(O)c1-3 [Compound 4, R(−)—N-propyl-11-hydroxynoraporphine] | 0 | 8 | 24 | 18 | 76 |  | Ki [2]: 4.89 ± 1.06 nM; Ki [6]: 1280 ± 209 nM
C=CCN1CCc2cccc3c2[C@H]1Cc1cccc(O)c1-3 [Compound 5, R(−)-N-allyl-11-hydroxynoraporphine] |  |  |  |  |  |  | Ki [6]: 944 ± 149 nM; Ki [4]: 397 ± 51 nM; Ki [7]: 113 ± 17 nM; Ki [5]: 41.1 ± 11 nM
CCN1CCc2cccc3c2[C@H]1Cc1cccc(O)c1-3 [Compound 14, R(−)—N-ethyl-11-hydroxynoraporphine] | 0 | 4 | 12 |  | 0 | 177 ± 13 | Ki [2]: 36.7 ± 4 nM; Ki [6, 11]: 362 ± 38 nM; Ki [7, 12]: 283 ± 53 nM; Ki [5]: 88 ± 15.5 nM
Oc1cccc2c1-c1cccc3c1[C@@H](C2)N(CC1CC1)CC3 [Compound 15, R(−)-N-cyclopropylmethyl-11-hydroxynoraporphine] |  |  |  |  |  | 272 ± 18 | Ki [2]: 30.1 ± 3.5 nM; Ki [7, 12]: 436 ± 39 nM; Ki [5]: 96.3 ± 15.8 nM
CC/C=C\C/C=C\C/C=C\C/C=C\C/C=C\C/C=C\CCC(=O)Oc1cccc2c1-c1cccc3c1[C@@H](C2)N(CCC)CC3 [Compound 17, R(−)-11-O-docosahexaenoyl-N-propyl-noraporphine] | 0 |  |  | 12 | 75 |  | Induced motor activation, Response (total of electronically monitored locomotor responses, scored over time) ([3]; 4 μmol/kg, cutaneous): 0; Induced motor activation, Duration ([3]; 20 μmol/kg, cutaneous): 6 h; Induced motor activation, Response (total of electronically monitored locomotor responses, scored over time) ([3]; 20 μmol/kg, cutaneous): 5
CCCCC(=O)Oc1cccc2c1-c1cccc3c1[C@@H](C2)N(CCC)CC3 [Compound 18, R(−)-11-O-valeryl-N-propyl-noraporphine] | 0 | 12 | 53 | 14 | 99 |  | Ki ([5]; read-out: Affinity at rat dopamine receptors, D2): 340 ± 65 nM
CCCN1CCc2cccc3c2[C@H]1Cc1cccc(OC(C)=O)c1-3 [Compound 19, R(−)-11-O-acetyl-N-propyl-noraporphine] | 0 | 8 | 12 | 16 | 168 |  | Ki [5, 10]: 72.3 ± 6.8 nM
CCCN1CCc2cc(F)cc3c2[C@H]1Cc1ccc(O)c(O)c1-3 [Compound 22, R(−)-2-fluoro-N-n-propylnorapomorphine, reference compound] |  |  |  |  |  | 618 ± 133 | Ki [2, 8]: 2.49 ± 0.18 nM; Ki [6, 11]: 414 ± 30 nM; Ki [7, 12]: 46 ± 2.6 nM; Ki [5, 10]: 17.2 ± 1.2 nM
CCCN1CCc2cc(F)cc3c2[C@H]1Cc1cccc(O)c1-3 [Compound 23, R(−)-2-fluoro-N-propyl-11-hydroxynoraporphine] |  |  |  |  |  |  | Ki [4]: 12.6 ± 0.6 nM; Ki [5, 10]: 203 ± 37 nM
CN1CCc2cc(O)cc3c2[C@H]1Cc1cccc(O)c1-3 [Compound 24, R(−)-2,11-dihydroxyaporphine] |  |  |  |  |  | 122 ± 8 | Ki [5]: 86 ± 14.2 nM
